Test results as given in PubChem BioAssay AID330 (DTP/NCI, 2004).
Values joined by “and” are separate entries in the source; they are usually repeats but may differ in a detail not shown here. Identical values can stand only once. Toxic doses and inconclusive results are not listed.

System: P388 leukemia ip, CD2F1 mice, survival T/C
Assay: NCI In Vivo Anticancer Drug Screen. Data for tumor model P388 Leukemia (intraperitoneal) in CD2F1 (CDF1) mice
Details: endpoint: median survival time, higher = longer survival
Outline: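 Mice carrying the transplanted tumor received test compound or vehicle. Survival was recorded in each group, and the value is the treated-group measurement divided by that of the vehicle-treated control group.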

[1] = dose: 60.0 mg/kg/injection, schedule: Q01DX005 (ip), vehicle: saline with Tween-80
[2] = dose: 120.0 mg/kg/injection, schedule: Q01DX005 (ip), vehicle: saline with Tween-80
[3] = dose: 240.0 mg/kg/injection, schedule: Q01DX005 (ip), vehicle: saline with Tween-80
[4] = dose: 50.0 mg/kg/injection, schedule: Q01DX009 (ip), vehicle: saline
[5] = dose: 200.0 mg/kg/injection, schedule: Q01DX009 (ip), vehicle: saline
[6] = dose: 100.0 mg/kg/injection, schedule: Q04DX002 (ip), vehicle: saline with Tween-80
[7] = dose: 200.0 mg/kg/injection, schedule: Q04DX002 (ip), vehicle: saline with Tween-80
[8] = dose: 50.0 mg/kg/injection, schedule: Q01DX009 (ip), vehicle: saline with Tween-80
[9] = dose: 100.0 mg/kg/injection, schedule: Q01DX009 (ip), vehicle: saline with Tween-80
[10] = dose: 200.0 mg/kg/injection, schedule: Q01DX009 (ip), vehicle: saline with Tween-80
[11] = dose: 50.0 mg/kg/injection, schedule: Q01DX005 (ip), vehicle: Klucel (hydroxypropylcellulose) (HPC)
[12] = dose: 100.0 mg/kg/injection, schedule: Q01DX005 (ip), vehicle: Klucel (hydroxypropylcellulose) (HPC)
[13] = dose: 200.0 mg/kg/injection, schedule: Q01DX005 (ip), vehicle: Klucel (hydroxypropylcellulose) (HPC)
[14] = dose: 100.0 mg/kg/injection, schedule: Q04DX003 (ip), vehicle: saline with Tween-80
[15] = dose: 200.0 mg/kg/injection, schedule: Q04DX003 (ip), vehicle: saline with Tween-80
[16] = dose: 100.0 mg/kg/injection, schedule: Q01DX005 (ip), vehicle: saline with Tween-80
[17] = dose: 200.0 mg/kg/injection, schedule: Q01DX005 (ip), vehicle: saline with Tween-80

Question: With `Cc1ccc(N2CCN(C(=O)C3=Cc4ccccc4OC3)CC2)cc1C` as the compound, how does the T/C (dose: 100.0 mg/kg/injection, schedule: Q04DX003 (ip), vehicle: Klucel (hydroxypropylcellulose) (HPC)) read?
Answer: 100 % of control

Question: What about the T/C (dose: 200.0 mg/kg/injection, schedule: Q04DX003 (ip), vehicle: Klucel (hydroxypropylcellulose) (HPC)) of the same compound?
Answer: 88 % of control

Question: Which results are given for `O=C1CCC(c2nc3ccccc3[nH]2)N1Cc1ccc(Cl)cc1` (stereo not given)?
Answer: T/C [1]: 108 % of control; T/C [2]: 90 % of control; T/C [3]: 86 % of control

Question: What does the source list for `COc1cccc(CN2CCCNCC2)c1`?
Answer: T/C (dose: 6.25 mg/kg/injection, schedule: Q01DX009 (ip), vehicle: water): 93 % of control; T/C (dose: 12.5 mg/kg/injection, schedule: Q01DX009 (ip), vehicle: water): 93 % of control; T/C (dose: 25.0 mg/kg/injection, schedule: Q01DX009 (ip), vehicle: water): 97 % of control; T/C (dose: 50.0 mg/kg/injection, schedule: Q01DX009 (ip), vehicle: water): 101 % of control

Question: What does the source list for `O=C(O)c1cc2cc([N+](=O)[O-])ccc2[se]1`?
Answer: T/C (dose: 12.5 mg/kg/injection, schedule: Q01DX009 (ip), vehicle: suspension in saline): 100 % of control; T/C (dose: 25.0 mg/kg/injection, schedule: Q01DX009 (ip), vehicle: suspension in saline): 101 % of control; T/C [4]: 86 % of control; T/C (dose: 50.0 mg/kg/injection, schedule: Q01DX009 (ip), vehicle: suspension in saline): 102 % of control; T/C [5]: 100 % of control

Question: With `COc1ccc(-c2oc3cc(OC)c(OC)c(O)c3c(=O)c2O)cc1O` as the compound, how does the T/C (dose: 25.0 mg/kg/injection, schedule: Q04DX002 (ip), vehicle: saline with Tween-80) read?
Answer: 105 % of control

Question: What about the T/C (dose: 50.0 mg/kg/injection, schedule: Q04DX002 (ip), vehicle: saline with Tween-80) of the same compound?
Answer: 110 % of control

Question: What about the T/C [6] of the same compound?
Answer: 103 % of control

Question: What about the T/C [7] of the same compound?
Answer: 102 % of control

Question: Which results are given for `Cn1c(=O)c(CCCC(=O)O)nc2ccccc21`?
Answer: T/C [6]: 97 % of control; T/C [7]: 102 % of control; T/C (dose: 400.0 mg/kg/injection, schedule: Q04DX002 (ip), vehicle: saline with Tween-80): 107 % of control

Question: For `CCCCCCCCCCNCCS`, which T/C (dose: 5.0 mg/kg/injection, schedule: Q01DX009 (ip), vehicle: saline) is on record?
Answer: 91 % of control

Question: What about the T/C (dose: 10.0 mg/kg/injection, schedule: Q01DX009 (ip), vehicle: saline) of the same compound?
Answer: 91 % of control

Question: And the T/C (dose: 20.0 mg/kg/injection, schedule: Q01DX009 (ip), vehicle: saline)?
Answer: 95 % of control

Question: What does the source list for `CC(=O)Nc1ccc2nc3n(c(=O)c2c1)CCCC3`?
Answer: T/C (dose: 100.0 mg/kg/injection, schedule: Q01DX001 (ip), vehicle: Klucel (hydroxypropylcellulose) (HPC)): 101 % of control; T/C (dose: 200.0 mg/kg/injection, schedule: Q01DX001 (ip), vehicle: Klucel (hydroxypropylcellulose) (HPC)): 101 % of control; T/C (dose: 400.0 mg/kg/injection, schedule: Q01DX001 (ip), vehicle: Klucel (hydroxypropylcellulose) (HPC)): 100 % of control

Question: Which T/C (dose: 100.0 mg/kg/injection, schedule: Q04DX002 (ip), vehicle: saline + alcohol) does the source give for `O=C(O)/C=C/CCCCCCO` here?
Answer: 91 % of control

Question: What about the T/C (dose: 200.0 mg/kg/injection, schedule: Q04DX002 (ip), vehicle: saline + alcohol) of the same compound?
Answer: 100 % of control

Question: And the T/C (dose: 400.0 mg/kg/injection, schedule: Q04DX002 (ip), vehicle: saline + alcohol)?
Answer: 106 % of control

Question: What does the source list for `Cc1ccn2c([N+](=O)[O-])cnc2c1`?
Answer: T/C [8]: 107 % of control; T/C [9]: 104 % of control; T/C [10]: 102 % of control

Question: With `O=[N+]([O-])c1ccccc1N=Nc1c(O)sc2ccccc12` as the compound, how does the T/C [11] read?
Answer: 98 % of control

Question: What about the T/C [12] of the same compound?
Answer: 96 % of control

Question: What about the T/C [13] of the same compound?
Answer: 91 % of control

Question: `C=CCSc1nc2ccc(N3C(=O)C=CC3=O)cc2s1` was tested. Which T/C (dose: 6.25 mg/kg/injection, schedule: Q01DX009 (ip), vehicle: Klucel (hydroxypropylcellulose) (HPC)) did it give?
Answer: 111 % of control

Question: What about the T/C (dose: 12.5 mg/kg/injection, schedule: Q01DX009 (ip), vehicle: Klucel (hydroxypropylcellulose) (HPC)) of the same compound?
Answer: 104 % of control and 113 % of control

Question: And the T/C (dose: 25.0 mg/kg/injection, schedule: Q01DX009 (ip), vehicle: Klucel (hydroxypropylcellulose) (HPC))?
Answer: 108 % of control and 113 % of control

Question: With `COc1ccc(C)cc1N=NC1C(=O)N(C(=O)CC(=O)Nc2ccccc2Cl)N=C1C` (stereo not given) as the compound, how does the T/C [11] read?
Answer: 96 % of control

Question: What about the T/C [12] of the same compound?
Answer: 95 % of control

Question: With `Cc1cc2c(cc1C)C(O)(C#Cc1ccccc1)c1c(C)ccc(C)c1C2=O` (stereo not given) as the compound, how does the T/C [14] read?
Answer: 100 % of control

Question: And the T/C [15]?
Answer: 100 % of control

Question: And the T/C (dose: 400.0 mg/kg/injection, schedule: Q04DX003 (ip), vehicle: saline with Tween-80)?
Answer: 97 % of control

Question: What does the source list for `NC(CCC(N)C(=O)c1ccccc1)C(=O)c1ccccc1` (stereo not given)?
Answer: T/C [1]: 98 % of control; T/C [2]: 101 % of control; T/C [3]: 93 % of control

Question: With `C=CCc1cc(OC)c(OCC=O)c(OC)c1` as the compound, how does the T/C (dose: 100.0 mg/kg/injection, schedule: Q04DX002 (ip), vehicle: Klucel (hydroxypropylcellulose) (HPC)) read?
Answer: 99 % of control

Question: What about the T/C (dose: 200.0 mg/kg/injection, schedule: Q04DX002 (ip), vehicle: Klucel (hydroxypropylcellulose) (HPC)) of the same compound?
Answer: 96 % of control

Question: Which results are given for `C[C@@H](O)[C@H](NSc1ccccc1[N+](=O)[O-])C(=O)NCCc1nc(-c2nc(C(=O)NCCCBr)cs2)cs1`?
Answer: T/C (dose: 6.25 mg/kg/injection, schedule: Q01DX005 (ip), vehicle: saline with Tween-80): 93 % of control; T/C (dose: 12.5 mg/kg/injection, schedule: Q01DX005 (ip), vehicle: saline with Tween-80): 95 % of control; T/C (dose: 25.0 mg/kg/injection, schedule: Q01DX005 (ip), vehicle: saline with Tween-80): 90 % of control; T/C [16]: 97 % of control; T/C [17]: 86 % of control

Question: Which results are given for `CC(C(=O)O)c1ccc(C(=O)c2cccs2)cc1` (stereo not given)?
Answer: T/C [8]: 97 % of control; T/C [9]: 97 % of control; T/C [10]: 97 % of control

Question: How did the T/C (dose: 3.13 mg/kg/injection, schedule: Q04DX003 (ip), vehicle: saline with Tween-80) turn out when `CCOC(=O)CCOc1ccccc1N(CCCl)CCCl` was run?
Answer: 150 % of control

Question: And the T/C (dose: 6.25 mg/kg/injection, schedule: Q04DX003 (ip), vehicle: saline with Tween-80)?
Answer: 163 % of control

Question: What does the source list for `COc1ccc(CCNC(=O)Cc2ccc3cc(OC)c(OC)cc3c2)cc1OC`?
Answer: T/C [8]: 120 % of control; T/C [9]: 100 % of control; T/C [10]: 90 % of control

Question: Which results are given for `COC(=O)CCCCCCCCCCCCCCCCC(=O)O`?
Answer: T/C (dose: 50.0 mg/kg/injection, schedule: Q01DX009 (ip), vehicle: Klucel (hydroxypropylcellulose) (HPC)): 99 % of control; T/C (dose: 100.0 mg/kg/injection, schedule: Q01DX009 (ip), vehicle: Klucel (hydroxypropylcellulose) (HPC)): 94 % of control; T/C (dose: 200.0 mg/kg/injection, schedule: Q01DX009 (ip), vehicle: Klucel (hydroxypropylcellulose) (HPC)): 93 % of control

Question: How did the T/C (dose: 50.0 mg/kg/injection, schedule: Q04DX003 (ip), vehicle: saline with Tween-80) turn out when `CC(C)(CO)CN1CCCCC1` was run?
Answer: 100 % of control

Question: And the T/C [14]?
Answer: 100 % of control

Question: What about the T/C [15] of the same compound?
Answer: 100 % of control

Question: `C1CCC2C(C1)CC[N-]C2CCC1[N-]CCC2CCCCC21.C1CCC2C(C1)CC[N-]C2CCC1[N-]CCC2CCCCC21.[Ni+2].[O-][Cl+3]([O-])([O-])O` (stereo not given) was tested. Which T/C (dose: 25.0 mg/kg/injection, schedule: Q01DX001 (ip), vehicle: saline) did it give?
Answer: 100 % of control

Question: What about the T/C (dose: 50.0 mg/kg/injection, schedule: Q01DX001 (ip), vehicle: saline) of the same compound?
Answer: 100 % of control and 101 % of control

Question: What about the T/C (dose: 100.0 mg/kg/injection, schedule: Q01DX001 (ip), vehicle: saline) of the same compound?
Answer: 101 % of control and 108 % of control and 97 % of control

Question: And the T/C (dose: 200.0 mg/kg/injection, schedule: Q01DX001 (ip), vehicle: saline)?
Answer: 98 % of control and 100 % of control

Question: With `BrCCC1CO1` (stereo not given) as the compound, how does the T/C [4] read?
Answer: 98 % of control

Question: And the T/C (dose: 100.0 mg/kg/injection, schedule: Q01DX009 (ip), vehicle: saline)?
Answer: 100 % of control

Question: And the T/C [5]?
Answer: 117 % of control

Question: What does the source list for `CC1=C(C#N)C(=O)NC(C)C1` (stereo not given)?
Answer: T/C (dose: 25.0 mg/kg/injection, schedule: Q01DX005 (ip), vehicle: Klucel (hydroxypropylcellulose) (HPC)): 108 % of control; T/C [11]: 101 % of control; T/C [12]: 108 % of control; T/C [16]: 98 % of control; T/C [13]: 104 % of control; T/C [17]: 99 % of control; T/C (dose: 400.0 mg/kg/injection, schedule: Q01DX005 (ip), vehicle: saline with Tween-80): 102 % of control; T/C (dose: 500.0 mg/kg/injection, schedule: Q01DX001 (ip), vehicle: saline with Tween-80): 100 % of control; T/C (dose: 1000.0 mg/kg/injection, schedule: Q01DX001 (ip), vehicle: saline with Tween-80): 99 % of control; T/C (dose: 2000.0 mg/kg/injection, schedule: Q01DX001 (ip), vehicle: saline with Tween-80): 108 % of control
